Experimental data: patent US8993543B2, “Diphenyl sulfide derivative and pharmaceutical product which contains same as active ingredient” (Kyorin Pharmaceutical Co., Ltd., priority 2010, dated 2015)
pEC50, pKd: −log10 of the molar value.

What was measured:
Human S1P3 receptor = biological target: T1, Human S1P3 receptor (Homo sapiens, UniProt Q99500); test: Suppression of S1P-induced cellular calcium mobilization in human S1P3 receptor-expression CHO cells (Schild plot, Kd); type: cell-based; conditions: Fluo3 calcium mobilization by S1P, Schild plot analysis, read-out: S1P3 dissociation constant Kd
T1 construct: expressed in transfected cells; host or cells: CHO cells (Geneticin selection)
Experimental: Suppression Effect of Test Compound Against Cellular Calcium Mobilization of Human S1P3 Receptor-Expression Cell by S1P (Sphingosine 1-Phosphoric Acid)
Human S1P3 receptor-expression CHO cells were subcultured in a Ham's F-12 culture medium containing 10% fetal bovine serum, and 300 μg/mL of Geneticin The human S1P3 receptor-expression CHO cells were subjected to 0.25% trypsinization, then recovered from the dish, and floated in a Ham's F-12 culture medium containing 10% fetal bovine serum, and 300 μg/mL of Geneticin. Then, the human S1P3 receptor-expression CHO cells were seeded into a 96-well black clear bottom plate (BD Falcon Biocoat) at 2.5×10^4/100 μL/well. The human S1P3 receptor-expression CHO cells were then cultivated for […] at 37° C. under 5% CO2 environment. The next day, the wells were washed with a Ham's F-12 culture medium containing 100 μL of 0.1% fatty acid-free bovine serum albumin (BSA). This washing treatment was carried out 3 times. The culture medium was exchanged with a Ham's F-12 culture medium containing 0.1% BSA, and then starved of serum for 6 hours in a CO2 incubator set at 37° C.
The culture medium was thrown away after the 6 hours. Then, 50 μL/well of a Fluo3 loading buffer was added, and the cultures were cultivated for further 1 hour. The Fluo3 loading buffer was prepared as follows. First, equal amounts of Fluo3-AM (Dojindo) and pluronic F-127 (20% DMSO solution, invitrogen) weremixed. Then, the mixture of Fluo3-AM andpluronic F-127 was added into a Hanks-HEPES buffer (Hanks balanced salt solution containing 20 mM HEPES (pH 7.4), 0.1% BSA (fatty acid-free), and 2.5 mM probenecid) to form a Fluo3 loading buffer having a final Fluo3-AM concentration of 4 μM.
After incubating for 1 hour, the wells were washed 3 times with 100 μL of the Hanks-HEPES buffer. 100 μL of the same buffer in which a test compound (0.125 nM, 1.25 nM, 12.5 nM, 125 nM, 1.25 μM) or DMSO had been dissolved were added to the each well, and then incubated for 30 minutes at 37° C. in a microplate spectrophotofluorometer (FLEX Station (Molecular Device Co., Ltd.)). Then, 25 μL of S1P prepared at 5 times the concentration of the final concentration based on serial dilution (final concentration of 0.1 nM, 1 nM, 10 nM, 100 nM, and 1 μM) was added, and the fluorescence based on the Fluo3 due to calcium mobilization was detected and measured at an excitation wavelength of 485 nm and a detection wavelength of 525 nm using an same apparatus. Based on the measurement data, the increase in fluorescence was calculated by subtracting the minimum fluorescence intensity from the maximum fluorescence intensity. The calculated increase in fluorescence was used to perform a curve approximation of the relationship between the S1P concentration and the increase in fluorescence using PRISM 4 software (GraphPad). Based on the results, the EC50 value of the compound-untreated and the EC50 value of the compound-treated at each concentration was calculated. Based on these values, Schild plot analysis was carried out in order to determine the dissociation constant Kd. In Table 1, 1 nmol/L>Kd value≧0.1 nmol/L is indicated as “+”, 0.1 nmol/L>Kd value≧0.01 nmol/L is indicated as “++”, and 0.01 nmol/L>Kd value is indicated as “+++”.

S1P1 receptor [1] = biological target: T2, S1P1 receptor (Homo sapiens, UniProt P21453); test: Antagonistic action on the S1P1 receptor by the method of Experiment Example 1 (Kd); type: cell-based; set-up: expressed in transfected cells
S1P1 receptor [2] = biological target: T2, S1P1 receptor; test: Intracellular calcium mobilization derivative test (agonist action) in human S1P1 receptor-expression CHO cells; type: cell-based; set-up: expressed in transfected cells; host or cells: CHO cells (Geneticin selection); conditions: agonist mode, up to 10 μM
Experimental: Intracellular Calcium Mobilization Derivative Test of Test Compound Against Human S1P1 Receptor-Expression Cell
Human S1P1 receptor-expression CHO cells were subcultured in a Ham's F-12 culture medium containing 10% fetal bovine serum, and 300 μg/mL of Geneticin. The human S1P1 receptor-expression CHO cells were subjected to 0.25% trypsinization, then recovered from the dish, and floated in a Ham's F-12 culture medium containing 10% fetal bovine serum, and 300 μg/mL of Geneticin. Then, the human S1P1 receptor-expression CHO cells were seeded into a 96-well black clear bottom plate (BD Falcon Biocoat) at 2.5×10^4/100 μL/well. […]
After incubating for 1 hour, the wells were washed 3 times with 100 μL of the Hanks-HEPES buffer. […] Then, 25 μL of the same buffer dissolved with DMSO, or S1P prepared at 5 times the concentration of the final concentration based on serial dilution or the test compound (final concentration of 0.1 nM, 1 nM, 10 nM, 100 nM, 1 μM, and 10 μM) was added, and the fluorescence based on the Fluo3 due to calcium mobilization was detected and measured at an excitation wavelength of 485 nm and a detection wavelength of 525 nm using the same apparatus. Based on the measurement data, the increase in fluorescence was calculated by subtracting the minimum fluorescence intensity from the maximum fluorescence intensity. […]

[3] = test system: Cecal ligation and puncture (CLP) sepsis; test: Cecal ligation and puncture sepsis model, survival; type: in vivo, Wistar rats; conditions: CLP rats
Experimental: Cecal Ligation and Puncture Sepsis Model
This model is widely used as a model for polymicrobial abdominal sepsis caused by leakage of intestinal bacteria. The experiment was carried out with reference to the method described in Non-Patent Literature 9 (D. Rittirsch et al., Nature Protocols, 4, 31 (2009)).
Preparation of Cecalligation and Puncture (CLP) Sepsis Mice
Wistar rats (Charles River Laboratories, Japan Inc., male 8 W) were used. The abdominal portion of the rats was cut open under isoflurane anesthesia, and the appendix was exteriorized. The appendix was ligated with sterilized silk thread, and 10 holes were opened in the tip portion of the appendix using an 18 G syringe needle. After the treatment, the appendix was returned to the body, and the wound was sutured. Further, physiological saline was subcutaneously administered at a dose of 30 mL/kg. The rats were then returned to their cages, and observed for 7 days to determine the survival rate.
Test Compound Administration Method
The test compound was continuously administered via a cannula stuck in the femoral vein at a dose of 0.1 mg/kg/hr. Administration of the test compound was started 1 hour after the CLP procedure was finished.

T1 sequence (Q99500 whole entry): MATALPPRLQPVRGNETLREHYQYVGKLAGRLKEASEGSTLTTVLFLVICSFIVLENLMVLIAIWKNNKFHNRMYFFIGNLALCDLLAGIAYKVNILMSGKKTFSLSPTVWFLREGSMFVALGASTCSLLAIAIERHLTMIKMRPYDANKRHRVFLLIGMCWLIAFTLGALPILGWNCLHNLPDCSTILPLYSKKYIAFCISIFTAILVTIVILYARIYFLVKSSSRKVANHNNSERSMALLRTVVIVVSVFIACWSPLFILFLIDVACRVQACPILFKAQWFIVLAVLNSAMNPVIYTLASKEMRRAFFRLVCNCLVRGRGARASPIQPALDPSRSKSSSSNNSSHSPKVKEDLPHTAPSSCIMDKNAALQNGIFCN
T2 sequence (P21453 whole entry): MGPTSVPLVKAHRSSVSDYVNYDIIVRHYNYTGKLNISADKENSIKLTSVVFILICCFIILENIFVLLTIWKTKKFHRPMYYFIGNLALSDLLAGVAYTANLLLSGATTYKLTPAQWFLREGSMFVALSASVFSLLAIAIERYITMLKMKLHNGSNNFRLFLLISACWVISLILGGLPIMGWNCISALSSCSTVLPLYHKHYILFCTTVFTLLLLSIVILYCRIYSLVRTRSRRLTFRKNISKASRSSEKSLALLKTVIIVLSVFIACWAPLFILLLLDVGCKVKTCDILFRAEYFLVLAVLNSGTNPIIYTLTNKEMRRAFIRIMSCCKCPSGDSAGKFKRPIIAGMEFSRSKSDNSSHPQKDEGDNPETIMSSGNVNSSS

| pKd (Human S1P3 receptor) | Structure (SMILES) | pKd (S1P1 receptor [1]) | pEC50 (S1P1 receptor [2]) | survival lengthening action, Log-rank test p ([3]; 0.1 mg/kg/hr continuous via femoral vein from 1 hour after CLP, vs medium administration group) | survival rate, test subjects alive after 3 days ([3]; 0.1 mg/kg/hr continuous via femoral vein, after 3 days) [%] | survival rate, test subjects alive after 7 days ([3]; 0.1 mg/kg/hr continuous via femoral vein, after 7 days) [%] |
| --- | --- | --- | --- | --- | --- | --- |
| 9.00 to 10.00 | CCC[C@](N)(CCc1ccc(Sc2cc(C(C)=O)ccc2O)cc1Cl)COP(=O)(O)O [compound 36, (S)-4-[4-(5-acetyl-2-hydroxyphenylthio)-2-chlorophenyl]-2-amin o-2-propylbutylphosphoric acid monoester] | – | – | – | – | – |
| 9.00 to 10.00 | N[C@@](CCCO)(CCc1ccc(Sc2cc(C3CC3)ccc2O)cc1Cl)COP(=O)(O)O [compound 19] | – | – | – | – | – |
| 9.00 to 10.00 | CCC[C@](N)(CCc1ccc(Sc2cc(C#N)ccc2O)cc1Cl)COP(=O)(O)O [compound 35, (S)-2-amino-4-[2-chloro-4-(5-cyano-2-hydroxyphenylthio)Phenyl]-2-propylbutylphosphoric acid monoester] | – | – | – | – | – |
| > 11.00 | C=CC[C@](N)(CCc1ccc(Sc2cc(OCC)ccc2O)cc1Cl)COP(=O)(O)O [Example 1, (R)-2-allyl-2-amino-4-{2-chloro-4-(5-ethoxy-2-hydroxyphenylthio)phenyl}butylphosphoric acid monoester] | 8.58 | < 5.00 | – | – | – |
| 9.00 to 10.00 | C=CC[C@](N)(CCc1ccc(Sc2cc(C#N)ccc2O)cc1Cl)COP(=O)(O)O [compound 28, (R)-2-allyl-2-amino-4-{2-chloro-4-(5-cyano-2-hydroxyphenylthio)phenyl}butylphosphoric acid monoester] | – | – | – | – | – |

| Structure (SMILES) | pKd (Human S1P3 receptor) | pKd (S1P1 receptor [1]) | pEC50 (S1P1 receptor [2]) | survival lengthening action, Log-rank test p ([3]; 0.1 mg/kg/hr continuous via femoral vein from 1 hour after CLP, vs medium administration group) | survival rate, test subjects alive after 3 days ([3]; 0.1 mg/kg/hr continuous via femoral vein, after 3 days) [%] | survival rate, test subjects alive after 7 days ([3]; 0.1 mg/kg/hr continuous via femoral vein, after 7 days) [%] |
| --- | --- | --- | --- | --- | --- | --- |
| CCC[C@](N)(CCc1ccc(Sc2cc(OCC)ccc2O)cc1Cl)COP(=O)(O)O [Example 2, (S)-2-amino-4-{2-chloro-4-(5-ethoxy-2-hydroxyphenylthio)phenyl}-2-propylbutylphosphoric acid monoester] | > 11.00 | 8.80 | < 5.00 | < 0.01 | 25 | 12.5 |
